This note sets out measurements from patent US10653741B2, “Herbo-mineral formulation for the treatment of cardio vascular diseases and method of preparation thereof” (Muniyal Ayurvedic Research Centre, priority 2017, dated 2020).

Structures are written as SMILES.

The nature of series [1]: Organ weight, ISP induced myocardial infarction study. In kind it is in vivo, Sprague-Dawley rats. Particulars: Carvedilol 2 mg/kg + ISP. The text has this:
(§1) Animals: 35 male Sprague-Dawley rats of 150-200 g body weight were selected for the study. Animals were housed in individual polycarbonate cages in a well-ventilated room under an ambient temperature of 23±2 degree C. and 40-65% relative humidity, with artificial photoperiod 12-h light/12-h dark cycle. They were provided with standard rodent pellet diet (Nutrilab Rodent, Tetragon Chemie, India) and purified water ad libitum (RIOS, USA). Experimental animals were acclimatized for 7 days to the laboratory conditions prior to experimentation. The study protocol was approved by Institutional Animal Ethical Committee (IAEC).
(§2) Experimental groups and design: Rats were randomized into 5 groups based on the body weight. ISP (120 mg/kg) was injected subcutaneously to rats on 19th and 21st day to induce experimental myocardial infarction. Test drug was orally administered throughout the study. • Group I (Normal control): 0.5% CMC • Group II (Positive control): 0.5% CMC+ISP (120 mg/kg) • Group III (Standard): Carvedilol (2 mg/kg/day, p.o)+ISP (120 mg/kg, s.c.) • Group IV (Low dose): Test drug (50 mg/kg/day, p.o)+ISP (120 mg/kg, s.c.) • Group V (High dose): Test drug (100 mg/kg/day, p.o)+ISP (120 mg/kg, s.c.)
(§3) The change in body weight was recorded every week. At the end of the experiment, blood was collected and the plasma was separated for biochemical investigation. The animals were euthanized and the organs (heart, Kidney and adrenals) were dissected out and weighed. Heart homogenate was used for further analysis and LV was separated for the analysis of apoptotic marker gene expression as depicted in the various examples hereunder.

The nature of series [2]: Body weight, ISP induced myocardial infarction study. It is filed as in vivo, Sprague-Dawley rats. Particulars: Carvedilol 2 mg/kg + ISP, Mean ± SEM.
Text: as §1, §2, §3

In the case of `COc1ccccc1OCCNCC(O)COc1cccc2[nH]c3ccccc3c12` (centres unmarked) [Carvedilol], in series [1], the “Organ weight: Heart, percent in brackets (compared with Positive control)” value is listed as 13.1%. Besides, in series [1] (Mean ± SEM), the “Organ weight: Adrenals” value stood at 0.02 ± 0.00 g. In series [1] (Mean ± SEM), the “Organ weight: Heart” value turned out to be 0.44 ± 0.07 g. Moreover, in series [1] (Mean ± SEM), the “Organ weight: Kidney” value was 0.68 ± 0.10 g. For the same compound, the Body weight was 211.00 ± 1.70 g in series [2] (0th day), 210.57 ± 3.22 g in series [2] (7th day), 218.43 ± 4.37 g in series [2] (14th day) and 216.43 ± 1.58 g in series [2] (21st day).
